Experimental data reported in PubChem BioAssay (NCI).
Several values for one entry are separate records, joined by “and”; a condition that tells them apart may be missing. Equal values may be shown once.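 Following 48 hours of exposure in 96-well plates, responses at five concentrations were used to interpolate endpoints linearly. GI50 marks 50% less growth. The concentration for full growth arrest is given as TGI.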

What was measured:
Test in all cases: NCI tumour cell line growth inhibition, 48 h
HCT-116 colon = test system: HCT-116 colon
KM20L2 colon = test system: KM20L2 colon
LXFL 529 NSCLC = test system: LXFL 529 NSCLC
OVCAR-4 ovarian = test system: OVCAR-4 ovarian
SF-268 CNS = test system: SF-268 CNS
SK-MEL-2 melanoma = test system: SK-MEL-2 melanoma
SN12C renal = test system: SN12C renal
SNB-78 CNS = test system: SNB-78 CNS
UACC-62 melanoma = test system: UACC-62 melanoma
DLD-1 colon = test system: DLD-1 colon
DMS 114 small cell lung = test system: DMS 114 small cell lung
DMS 273 small cell lung = test system: DMS 273 small cell lung
HOP-18 NSCLC = test system: HOP-18 NSCLC
M19-MEL melanoma = test system: M19-MEL melanoma
XF 498 CNS = test system: XF 498 CNS

Row | SMILES | TGI (HCT-116 colon) | TGI (KM20L2 colon) | TGI (LXFL 529 NSCLC) | GI50 (OVCAR-4 ovarian) | TGI (OVCAR-4 ovarian) | GI50 (SF-268 CNS) | TGI (SF-268 CNS) | TGI (SK-MEL-2 melanoma) | TGI (SN12C renal) | TGI (SNB-78 CNS) | GI50 (UACC-62 melanoma) | TGI (UACC-62 melanoma) | TGI (DLD-1 colon) | TGI (DMS 114 small cell lung) | TGI (DMS 273 small cell lung) | TGI (HOP-18 NSCLC) | TGI (M19-MEL melanoma) | TGI (XF 498 CNS)
1 | COc1ccc(-c2nc(SC)n(C3OC(COC(C)=O)C(OC(C)=O)C(OC(C)=O)C3OC(C)=O)c(=O)c2C#N)cc1 (configuration not stated) | > 100 µM | > 100 µM | > 100 µM | 29.3 µM and > 100 µM | > 100 µM | 21.8 µM and 76.4 µM | > 100 µM | > 100 µM | > 100 µM | 57.8 µM | 40.5 µM and > 100 µM | > 100 µM |  |  |  |  |  | 
2 | CCCCC(N)CSSCC(N)CCCC (configuration not stated) | 31.8 µM |  | 31.2 µM |  | 32.6 µM |  | 61.5 µM | 36.7 µM | 36.1 µM | 98.5 µM |  | 41.1 µM | 60.3 µM | 37.1 µM | 45.6 µM | > 100 µM | 56.9 µM | 34.9 µM
3 | COc1cc2c3c(c1OC)C(=O)C(=O)C1=C3N(CCC1)CC2 | 47.3 µM |  |  |  | 62.2 µM |  | 92.1 µM | > 100 µM | > 100 µM |  |  | 42 µM |  |  |  |  |  | 
4 | CC1(C)CC[C@]2(C(=O)O)CC[C@]3(C)C(=CC[C@@H]4[C@@]5(C)CC[C@H](OC6OC(CO)C(O)C(O)C6O)C(C)(C)[C@@H]5CC[C@]43C)[C@@H]2C1 (some centres not stated) | 3.13 µM |  |  |  | 3 µM |  | 3.51 µM | 3.15 µM | 3.07 µM |  |  | 3.28 µM |  |  |  |  |  | 
5 | COc1ccc(S(=O)(=O)Nc2ccc(-c3csc(N4C(=O)/C(=C/c5cccs5)N=C4c4ccccc4)n3)cc2)cc1Cl | > 100 µM |  |  |  | > 100 µM |  | > 100 µM | > 100 µM | > 100 µM |  |  | > 100 µM |  |  |  |  |  | 
6 | Cc1ccc2c(=O)c(C(=O)NNC(=S)NC3CCCCC3)c[nH]c2n1 | > 100 µM |  |  |  | > 100 µM |  | > 100 µM | > 100 µM | > 100 µM |  |  | > 100 µM |  |  |  |  |  | 
7 | N#CC1=C(S)N(C2OC(CO)C(O)C(O)C2O)C(c2ccccc2)=CC1c1cccs1 (configuration not stated) | 75.7 µM |  |  |  | > 100 µM |  | 63.8 µM | 50.2 µM | 32.4 µM |  |  | 48.3 µM |  |  |  |  |  | 
8 | CC(C)C[C@H](NC(=O)CCc1cccc2ccccc12)B(O)O | 2.91 µM |  |  |  | 29 µM |  | 10.1 µM | 6.74 µM | 21 µM |  |  | 5.59 µM |  |  |  |  |  | 
9 | C[C@]12CC/C(=N\O)C=C1CC[C@@H]1[C@@H]2CC[C@]2(C)C(=N/O)/C(=C/c3ccncc3)C[C@@H]12 | 47.4 µM |  |  |  | > 100 µM |  | > 100 µM | 34.2 µM | > 100 µM |  |  | 35 µM |  |  |  |  |  | 
10 | C[C@H](CO)C1=CC(C#C[Si](C)(C)C)N(C(=O)Oc2ccccc2)c2ccccc21 (some centres not stated) | 22.7 µM |  |  |  | 21.8 µM |  | 27.6 µM | 30.2 µM | 25.5 µM |  |  | 19.9 µM |  |  |  |  |  | 
11 | COC1C(OC(C)=O)CC(=O)OC(C)C/C=C/C=C\C(O)C(C)CC(CC=O)C1OC1OC(C)C(OC2CC(C)(O)C(OC(=O)CC(C)C)C(C)O2)C(N(C)C)C1O (configuration not stated) | > 100 µM |  |  |  | > 100 µM |  | > 100 µM | > 100 µM | > 100 µM |  |  | > 100 µM |  |  |  |  |  | 
12 | O=C(Nc1nccs1)NS(=O)(=O)n1cnc2ccccc21 | > 100 µM |  |  |  | > 100 µM |  | > 100 µM | > 100 µM | > 100 µM |  |  | > 100 µM |  |  |  |  |  | 
13 | COc1ccc2c(c1)C(=O)[C@@](Nc1ccc(C=O)cc1)(OC)[C@@](OC)(c1ccc([N+](=O)[O-])cc1)O2 | > 10 µM |  |  |  | > 10 µM |  | > 10 µM | > 10 µM | > 10 µM |  |  | > 10 µM |  |  |  |  |  | 
14 | CCOc1ncnc2ccc(Cl)c(I)c12 | > 100 µM | > 100 µM | > 100 µM |  | > 100 µM |  | > 100 µM | > 100 µM | > 100 µM |  |  | > 100 µM | > 100 µM | > 100 µM | > 100 µM |  | > 100 µM | > 100 µM
15 | Cc1cc(=O)n2nc(CSc3n[nH]c(=S)s3)sc2n1 | > 100 µM |  |  |  | > 100 µM |  | > 100 µM | > 100 µM | > 100 µM |  |  | > 100 µM |  |  |  |  |  | 
16 | Nc1nc(Cc2ccccc2)nc(Cc2ccccc2)c1-c1ccccc1 | 46 µM |  |  |  | > 100 µM |  | 85.9 µM | 29.8 µM | > 100 µM |  |  | 43 µM |  |  |  |  |  | 
17 | COc1ccc(/C=C2/SC(c3c(O)ccc4ccccc34)N(NC(=O)CCCCCCCCC(=O)NN3C(=O)/C(=C\c4ccc(OC)c(OC)c4)SC3c3c(O)ccc4ccccc34)C2=O)cc1OC (configuration not stated) | > 100 µM |  |  |  | > 100 µM |  | > 100 µM | > 41.6 µM | > 100 µM |  |  | 11.2 µM |  |  |  |  |  | 
18 | NS(=O)(=O)c1ccc(N2C(=O)C(=O)N(c3ccccc3)C2=S)cc1 | > 100 µM |  |  |  | > 100 µM |  | > 100 µM | > 100 µM | > 100 µM |  |  | > 100 µM |  |  |  |  |  | 
19 | O=P(O)(O)CC1OC(CO)C(O)C1O (configuration not stated) | > 100 µM |  |  |  | > 100 µM |  | > 100 µM | > 100 µM | > 100 µM |  |  | > 100 µM |  |  |  |  |  | 
20 | O=C1c2cc([N+](=O)[O-])sc2C(=O)c2cc([N+](=O)[O-])sc21 | 3.24 µM |  |  |  | 8.71 µM |  | 10 µM | 21.4 µM | 7.12 µM |  |  | 3.8 µM |  |  |  |  |  | 
21 | COc1ccc(C(=O)N(Cc2cccnc2)C(=S)N(Cc2cccnc2)C(=O)c2ccc(OC)cc2)cc1 | > 100 µM |  |  |  | > 100 µM |  | > 100 µM | > 100 µM | > 100 µM |  |  | > 100 µM |  |  |  |  |  | 
